{
  "source": "patent US20260199323A1",
  "about": "“LIGAND COMPOUNDS FOR E3 UBIQUITIN LIGASE, PROTEIN DEGRADERS DEVELOPED ON BASIS OF LIGAND COMPOUNDS, AND USES THEREOF” (GLUETACS THERAPEUTICS (SHANGHAI) CO., LTD., priority 2021, published 2026)",
  "key": {"MDA-MB-231": {"system": "MDA-MB-231", "assay": "CCK-8 tumor cell proliferation, MDA-MB-231", "format": "cell-based, Human", "parameters": "IC50 for inhibiting the proliferation of tumor cells, MDA-MB-231: scale not given here", "conditions": "Table 7, designed based on BTK inhibitors; 96 h", "how_it_was_run": "(§1)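 STR-authenticated, mycoplasma-negative cells were cultured at 37 °C with 5% CO2. One day after plating, they were treated with a 5-fold serial dilution of compound (10 points, highest 10 μM). CCK-8 was used to assess viability, giving IC50 values.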"}, "Jurkat": {"system": "Jurkat", "assay": "CCK-8 tumor cell proliferation, Jurkat", "format": "cell-based, Human", "conditions": "Homo sapiens, Table 23, compared to Comparative Example compounds, read-out: Inhibitory activity (IC50, nM) against tumor cell proliferation, Jurkat", "how_it_was_run": "as §1"}, "THP-1": {"system": "THP-1", "assay": "CCK-8 tumor cell proliferation, THP-1", "format": "cell-based, Human", "conditions": "Table 7, designed based on BTK inhibitors; 72 h", "method": "(§2) The tumor cells used herein were cultured in a cell culture medium listed in table 4 at 37° C. in an incubator with 5% CO2. Prior to experimentation, all cells used were correctly identified by STR profiling, and tested negative for mycoplasma through routine screenings.\n(§3) IC50 values of the compounds of the present disclosure (including the compounds in Tables 1 and 3, and compounds of examples) were measured using the Meilun Cell Counting Kit-8 kit from Dalian Meilun Biotech Co., Ltd. Assay details are as follows: tumor cells were seeded in a 96-well plate at a density listed in Table 5. After 24 h, 100 μL of the inoculated cells were treated with 0.5 μL of the compounds of the present disclosure (including the compounds in Tables 1 and 3, and compounds of examples) at 10 different successively decreasing concentrations (starting at the highest concentration of 10 μM; 5-fold serial dilutions). After the cells were treated with the compounds of the present disclosure for a period of time, the cell viability detection reagent was added to the culture medium for cell viability assessment according to the instructions provided with the CCK-8 kit. […] The growth inhibition of the compounds of the present disclosure on cells was plotted by Prism Graphpad software, and the IC50 values of the compounds of the present disclosure were calculated therefrom."}, "22RV1": {"system": "22RV1", "assay": "CCK-8 tumor cell proliferation, 22RV1", "parameters": "species or system Human", "conditions": "Table 7, designed based on BTK inhibitors; 96 h", "method": "as §2, §3"}, "MV-4-11": {"system": "MV-4-11", "assay": "CCK-8 tumor cell proliferation, MV-4-11", "format": "cell-based, Human", "conditions": "Table 7, designed based on BTK inhibitors; 72 h", "how_it_was_run": "as §1"}, "MM.1S": {"system": "MM.1S", "assay": "CCK-8 tumor cell proliferation, MM.1S", "format": "cell-based", "conditions": "Table 7, designed based on BTK inhibitors; 72 h", "how_it_was_run": "as §1"}, "Vcap": {"system": "Vcap", "assay": "CCK-8 tumor cell proliferation, Vcap", "format": "cell-based, Human", "conditions": "Table 7, designed based on BTK inhibitors; 96 h", "how_it_was_run": "as §1"}, "Kasumi-1": {"system": "Kasumi-1", "assay": "CCK-8 tumor cell proliferation, Kasumi-1", "format": "cell-based, Human", "conditions": "Table 7, designed based on BTK inhibitors; 72 h", "how_it_was_run": "as §1"}, "MM.1R": {"system": "MM.1R", "assay": "CCK-8 tumor cell proliferation, MM.1R", "format": "cell-based", "conditions": "Table 23, compared to Comparative Example compounds, read-out: Inhibitory activity (IC50, nM) against tumor cell proliferation, MM.1R", "how_it_was_run": "as §1"}, "Mino": {"system": "Mino", "assay": "CCK-8 tumor cell proliferation, Mino", "format": "cell-based, Human", "conditions": "Table 7, designed based on BTK inhibitors; 72 h", "how_it_was_run": "as §1"}, "CAL-62": {"system": "CAL-62", "assay": "CCK-8 tumor cell proliferation, CAL-62", "format": "cell-based, Human", "conditions": "Homo sapiens; Table 23, compared to Comparative Example compounds; CAL-62; read-out: Inhibitory activity (IC50, nM) against tumor cell proliferation, CAL-62", "how_it_was_run": "as §1"}, "JEKO-1": {"system": "JEKO-1", "assay": "CCK-8 tumor cell proliferation, JEKO-1", "parameters": "species or system Human", "conditions": "Table 7, designed based on BTK inhibitors; 96 h", "method": "as §2, §3"}, "NCI-H1975": {"system": "NCI-H1975", "assay": "CCK-8 tumor cell proliferation, NCI-H1975", "format": "cell-based, Human", "conditions": "Table 7, designed based on BTK inhibitors; 96 h", "how_it_was_run": "as §1"}, "CCRF-CEM": {"system": "CCRF-CEM", "assay": "CCK-8 tumor cell proliferation, CCRF-CEM", "format": "cell-based, Human", "parameters": "IC50 for inhibiting the proliferation of tumor cells, CCRF-CEM: scale not given here", "conditions": "Table 7, designed based on BTK inhibitors; 96 h", "how_it_was_run": "as §1"}},
  "data": [
    {"smiles": "Nc1ncnc2c1c(-c1ccc(Oc3ccccc3)cc1)nn2C1CCN(Cc2ccc3c(c2)CN(C2CCC(=O)NC2=O)C3=O)CC1", "note": "(stereo not drawn) [GT-02742, 3-(5-((4-(4-amino-3-(4-phenoxyphenyl)-1H-pyrazolo[3,4-d]pyrimidin-1-yl)piperidin-1-yl)methyl)-1-oxoisoindolin-2-yl)piperidine-2,6-dione]", "values": [
      {"measurement": "IC50 for inhibiting the proliferation of tumor cells, MDA-MB-231", "setting": "MDA-MB-231", "value": "A+"},
      {"measurement": "IC50", "setting": "Jurkat", "value": "< 50", "unit": "nM"},
      {"measurement": "IC50 for inhibiting the proliferation of tumor cells, THP-1", "setting": "THP-1", "value": "A+"},
      {"measurement": "IC50 for inhibiting the proliferation of tumor cells, 22RV1", "setting": "22RV1", "value": "A+"},
      {"measurement": "IC50 for inhibiting the proliferation of tumor cells, MV-4-11", "setting": "MV-4-11", "value": "A+"},
      {"measurement": "IC50 for inhibiting the proliferation of tumor cells, MM.1S", "setting": "MM.1S", "value": "A+"},
      {"measurement": "IC50 for inhibiting the proliferation of tumor cells, Vcap", "setting": "Vcap", "value": "A+"},
      {"measurement": "IC50 for inhibiting the proliferation of tumor cells, Kasumi-1", "setting": "Kasumi-1", "value": "A+"},
      {"measurement": "IC50", "setting": "MM.1R", "value": "< 50", "unit": "nM"},
      {"measurement": "IC50 for inhibiting the proliferation of tumor cells, Mino", "setting": "Mino", "value": "A+"},
      {"measurement": "IC50", "setting": "CAL-62", "value": "< 50", "unit": "nM"},
      {"measurement": "IC50 for inhibiting the proliferation of tumor cells, JEKO-1", "setting": "JEKO-1", "value": "A+"},
      {"measurement": "IC50 for inhibiting the proliferation of tumor cells, NCI-H1975", "setting": "NCI-H1975", "value": "A+"}
    ]},
    {"smiles": "Nc1ncnc2c1c(-c1ccc(Oc3ccccc3)cc1)nn2[C@H]1CCN(Cc2ccc3c(c2)CN(C2CCC(=O)NC2=O)C3=O)C[C@@H]1F", "note": "(stereo partly drawn) [GT-03264, 3-(5-(((3S,4S)-4-(4-amino-3-(4-phenoxyphenyl)-1H-pyrazolo[3,4-d]pyrimidin-1-yl)-3-fluoropiperidin-1-yl)methyl)-1-oxoisoindolin-2-yl)piperidine-2,6-dione]", "values": [
      {"measurement": "IC50 for inhibiting the proliferation of tumor cells, MDA-MB-231", "setting": "MDA-MB-231", "value": "A+"},
      {"measurement": "IC50 for inhibiting the proliferation of tumor cells, 22RV1", "setting": "22RV1", "value": "A+"},
      {"measurement": "IC50 for inhibiting the proliferation of tumor cells, MM.1S", "setting": "MM.1S", "value": "A+"},
      {"measurement": "IC50 for inhibiting the proliferation of tumor cells, Mino", "setting": "Mino", "value": "A+"},
      {"measurement": "IC50 for inhibiting the proliferation of tumor cells, JEKO-1", "setting": "JEKO-1", "value": "A+"},
      {"measurement": "IC50 for inhibiting the proliferation of tumor cells, NCI-H1975", "setting": "NCI-H1975", "value": "A+"}
    ]},
    {"smiles": "Nc1ncnc2c1c(-c1ccc(Oc3ccccc3)cc1)nn2[C@@H]1CCN(Cc2ccc3c(c2)CN(C2CCC(=O)NC2=O)C3=O)C[C@@H]1F", "note": "(stereo partly drawn) [GT-03297, 3-(5-(((3S,4R)-4-(4-amino-3-(4-phenoxyphenyl)-1H-pyrazolo[3,4-d]pyrimidin-1-yl)-3-fluoropiperidin-1-yl)methyl)-1-oxoisoindolin-2-yl)piperidine-2,6-dione]", "values": [
      {"measurement": "IC50 for inhibiting the proliferation of tumor cells, MDA-MB-231", "setting": "MDA-MB-231", "value": "A+"},
      {"measurement": "IC50 for inhibiting the proliferation of tumor cells, THP-1", "setting": "THP-1", "value": "A+"},
      {"measurement": "IC50 for inhibiting the proliferation of tumor cells, 22RV1", "setting": "22RV1", "value": "A+"},
      {"measurement": "IC50 for inhibiting the proliferation of tumor cells, MM.1S", "setting": "MM.1S", "value": "A+"},
      {"measurement": "IC50 for inhibiting the proliferation of tumor cells, Vcap", "setting": "Vcap", "value": "A+"},
      {"measurement": "IC50 for inhibiting the proliferation of tumor cells, Kasumi-1", "setting": "Kasumi-1", "value": "A+"},
      {"measurement": "IC50 for inhibiting the proliferation of tumor cells, CCRF-CEM", "setting": "CCRF-CEM", "value": "A+"},
      {"measurement": "IC50 for inhibiting the proliferation of tumor cells, JEKO-1", "setting": "JEKO-1", "value": "A+"},
      {"measurement": "IC50 for inhibiting the proliferation of tumor cells, NCI-H1975", "setting": "NCI-H1975", "value": "A+"}
    ]},
    {"smiles": "Nc1ncnc2c1c(-c1ccc(Oc3ccccc3)cc1)nn2[C@H]1CCN(Cc2ccc3c(c2)CN(C2CCC(=O)NC2=O)C3=O)C[C@H]1F", "note": "(stereo partly drawn) [GT-03331, 3-(5-(((3R,4S)-4-(4-amino-3-(4-phenoxyphenyl)-1H-pyrazolo[3,4-d]pyrimidin-1-yl)-3-fluoropiperidin-1-yl)methyl)-1-oxoisoindolin-2-yl)piperidine-2,6-dione]", "values": [
      {"measurement": "IC50 for inhibiting the proliferation of tumor cells, MDA-MB-231", "setting": "MDA-MB-231", "value": "A+"},
      {"measurement": "IC50 for inhibiting the proliferation of tumor cells, THP-1", "setting": "THP-1", "value": "A+"},
      {"measurement": "IC50 for inhibiting the proliferation of tumor cells, 22RV1", "setting": "22RV1", "value": "A+"},
      {"measurement": "IC50 for inhibiting the proliferation of tumor cells, MV-4-11", "setting": "MV-4-11", "value": "A+"},
      {"measurement": "IC50 for inhibiting the proliferation of tumor cells, MM.1S", "setting": "MM.1S", "value": "A+"},
      {"measurement": "IC50 for inhibiting the proliferation of tumor cells, Vcap", "setting": "Vcap", "value": "A+"},
      {"measurement": "IC50 for inhibiting the proliferation of tumor cells, Kasumi-1", "setting": "Kasumi-1", "value": "A+"},
      {"measurement": "IC50 for inhibiting the proliferation of tumor cells, Mino", "setting": "Mino", "value": "A+"},
      {"measurement": "IC50 for inhibiting the proliferation of tumor cells, CCRF-CEM", "setting": "CCRF-CEM", "value": "A+"},
      {"measurement": "IC50 for inhibiting the proliferation of tumor cells, JEKO-1", "setting": "JEKO-1", "value": "A+"},
      {"measurement": "IC50 for inhibiting the proliferation of tumor cells, NCI-H1975", "setting": "NCI-H1975", "value": "A+"}
    ]}
  ]
}
